The target in series [1] is T1, Shaker K^+ channel (Drosophila melanogaster, UniProt P08510).
T1 construct: injecting approximately 50 ng of WT Shaker cRNA (kit Ambion) into the oocytes; expressed in transfected cells; host or cells: Xenopus laevis oocytes (cRNA injection)
Put plainly: Inhibition of K+ currents, cut-open oocyte voltage clamp. The series is classed as cell-based, Xenopus oocytes. How it is done:
Using the cut-open oocyte voltage clamp studies to screen compounds to determine their potency towards Kv1 cannels was previously described in Starace and Bezanilla et al. (2004).
For this experiment, Shaker K^+ channel from D. […] was chosen as the archetypical voltage gated K^+ channel that gives name to the family.
Electrophysiology studies are conducted according to the protocol by Stefani and Bezanilla (1998). Briefly, K^+ channel Shaker cRNA is injected into Xenopus oocytes 24 h after their surgical extraction from adult frogs. 1-5 days after injection channel currents are recorded using the cut-open voltage-clamp.
K^+ channel expression in Xenopus oocytes membranes was achieved by injecting approximately 50 ng of WT Shaker cRNA (kit Ambion) into the oocytes 24 h after surgical extraction from adult frogs and collagenase treatment. Injected oocytes were maintained in a standard oocytes solution (100 mM NaCl, 5 mM KCl, 2 mM CaCl2, and 10 mM Hepes at pH 7.5) at 16.5° C. and recordings were performed 1-3 days after injection.
K^+ currents were recorded from oocytes expressing Shaker K^+ channels using the cut-open voltage clamp technique as described by Stefani and Bezanilla. The internal solution was 120 mM KOH, 20 mM HEPES-methyl sulfonate (MES) pH 7.4, 2 mM EGTA. The external solution was 12 mM KOH, 105 mM N-methyl-D-glucamine-MES pH 7.4, 20 mM HEPES, 2 mM CaOH. […] After application, cells were voltage-clamped at least 5 min at 0 mV, then voltage-clamped at −80 mV for 1-2 min. K^+ currents were generated by applying series of 50 ms pulses from −70 mV to +40 mV in increments of 10 mV. […] Analysis of the traces was done using an in-house software. The half-maximal inhibitory concentration (IC50) for each drug was calculated by plotting the relative K^+ current vs. concentration and fitted to the Hill equation using the software Origin.
(§1) EC50=10^<log EC50>; where <log EC50>=average of log EC50 values from all experiments with the same drug. 95% C.I.=[Upper Limit . . . Lower Limit]; where U.L.=10^(log EC50+s.d.) and L.L.=10^(log EC50−s.d.). The half-life (t1/2) in the stability and pharmacokinetic experiments was calculated by fitting the data to the equation Ct=C0*exp(−k*t) where C0=initial concentration, Ct=concentration at time t, and k=ln 2/t1/2. Student t-test was used to compare results and P<0.05 was considered significant.

Series [2] is described as follows: Parallel Artificial Membrane Permeability Assay (PAMPA). The class given is in vitro ADME. How it is done:
In this experiment, the inventors included highly permeable verapamil and lowly permeable theophylline as controls.
Permeability studies were performed as previously described by Sugano, et al., 2011. A 96-well microplate (acceptor compartment) was filled with PBS containing 5% DMSO. A hydrophobic filter plate (donor compartment) was placed atop the buffer-filled plate and the filter surface was impregnated with 5 μL solution of porcine polar brain lipids (Avanti Lipids) in dodecane (1% w/v). 150 μL of the test compounds dissolved in PBS containing 5% DMSO (compound concentration 0.5 mM) was added to the donor compartment and covered. The only barrier between the two compartments was the artificial BBB membrane containing the porcine polar brain lipids. The whole system was incubated for several hours.

A short description of series [3]: Pharmacokinetic study after single intravenous dose. The conditions noted are these: female, CD-1, mouse, mice, i.v. 0.75 mg/kg. The series is classed as in vivo, mice (CD-1). How it is done:
39 mice (CD-1, 6-weeks old, female) were used in the study. […] The drugs were dissolved in PBS and administered via tail-vein injection to achieve a dose of 0.75 mg/kg of body weight. At specific times post injection (10 min, 30 min, 1 h, 2 h, 4 h and 24 h) blood and brain samples were collected. Blood samples were transferred into tubes containing 5% EDTA, stored on ice, and centrifuged (4° C., 1000 rpm, 15 min). Plasma (upper phase) was transferred to a new tube and stored at −80° C. for further analysis. Brain tissue samples were collected after intracardial perfusion of the mouse. Brain tissue samples were stored at −80° C. for further analysis. Drug quantification in plasma: Briefly, to a 1.5 mL Eppendorf tube containing 50 μl of plasma, 200 μl of ice-cold acetonitrile containing 1,000 ng/ml Progesterone (used as internal standard) was added in order to precipitate the proteins. The sample was vortexed, mixed and centrifuged at 4000×g for 10 min at 4° C. to remove precipitates. 140 μl supernatant was collected and transferred to a 500 μl 96-well polypropylene plate and covered using silicone plate mat. 40 μl of sample was injected in into LC-MS. Using the same sample preparation procedure 11 standard solutions ranging from 50 ng/mL to 100 μg/mL were prepared, analyzed by LC-MS and used as a calibration curve to correlate peak area of the samples to concentration. Drug quantification in brain: the mouse brain was weighted and 1 mL of water per 400 mg of tissue was added. The sample was homogenized using an electric tissue homogenizer. To a 1.5 mL Eppendorf tube containing 50 μl of homogenized sample, 200 μl of ice-cold acetonitrile containing 1000 ng/ml Demeclocycline (used as internal standard) was added in order to precipitate the proteins. The sample was vortexed, mixed and centrifuged at 4000×g for 10 min at 4° C. to remove precipitates. 140 μl supernatant was collected and transferred to a 500 μl 96-well polypropylene plate and covered using silicone plate mat. 40 μl of each sample was injected into LC-MS. Using the same sample preparation procedure 11 standard solutions ranging from 50 ng/mL to 100 μg/mL were prepared, analyzed by LC-MS and used as a calibration curve to correlate peak area of the samples to concentration.
as §1, with “The Hill equation used to fit the data from the voltage-clamp and the optic nerve experiments was as follows: y=y0+(yf−y0)*x^n/(k^n+x^n); where n refers to the Hill coefficient (typically 1±0.1) and k refers to EC50 or IC50. y0 and yf refers to the origin and final ordinate values and were fixed at 1±0.1 or 0±0.1 depending on the experiment. EC50=10^<log” for “EC50=10^<log”

Each structure is given as a SMILES string. Where two headings read alike, the source gives them in different places.

T1 sequence (P08510 whole entry): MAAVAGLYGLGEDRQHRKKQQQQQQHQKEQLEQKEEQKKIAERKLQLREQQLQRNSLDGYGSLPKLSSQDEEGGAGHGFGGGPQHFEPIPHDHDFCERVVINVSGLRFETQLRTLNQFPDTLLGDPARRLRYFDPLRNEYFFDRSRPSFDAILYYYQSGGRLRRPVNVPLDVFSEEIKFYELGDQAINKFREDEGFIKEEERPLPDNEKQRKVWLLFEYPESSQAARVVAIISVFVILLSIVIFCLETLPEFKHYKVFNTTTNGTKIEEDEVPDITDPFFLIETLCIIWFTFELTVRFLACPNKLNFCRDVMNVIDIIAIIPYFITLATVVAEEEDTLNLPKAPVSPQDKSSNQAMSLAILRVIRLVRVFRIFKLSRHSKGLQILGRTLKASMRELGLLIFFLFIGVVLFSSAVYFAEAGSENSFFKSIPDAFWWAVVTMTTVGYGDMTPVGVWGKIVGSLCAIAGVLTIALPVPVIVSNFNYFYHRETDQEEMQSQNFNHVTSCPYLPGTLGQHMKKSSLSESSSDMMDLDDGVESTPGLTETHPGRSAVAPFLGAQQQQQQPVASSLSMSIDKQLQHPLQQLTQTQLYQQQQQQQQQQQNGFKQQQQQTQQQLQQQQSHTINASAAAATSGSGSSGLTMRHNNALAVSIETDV

As usually defined, the half-life is the time in which the quantity being followed falls by half. Turning to `Nc1ccncc1F` [3-F-4-AP, 3-fluoro-4-aminopyridine], in series [1] (cut-open oocyte voltage clamp (Example 2)), the “affinity for K^+ channels compared with 4-AP” value is recorded as “very similar affinity to 4-AP”. In addition, in series [1] (relative K+ current at +20 mV, Xenopus oocytes, Hill fit, read-out: half-maximal inhibitory concentration (IC50)), the IC50 was determined as 250 µM. Also, in series [2], the “times more permeable than 4-AP” value is given as 6.6 times. The “Pe: permeability coefficient across artificial membrane” value in series [2] (porcine polar brain lipids, 0.5 mM, 16 h, n=3) was 1.56 ± 0.06 ×10⁻⁶ cm/s. Further, the Kp in series [3] (brain and plasma, read-out: Cbrain/Cplasma (maximum in the brain over maximum in plasma)) came to 0.214 ± 0.17. Also, the half-life is 85.8 min in series [3] (brain, read-out: half-life in brain (converted)) and 20.4 min in series [3] (plasma, read-out: half-life in plasma (converted)).

These data come from patent US10442767B2 (priority 2012, dated 2019).
